Test results published in patent US20200338156A1, “C[…] (CYCLO-HIS PRO) FOR PREVENTING, IMPROVING OR TREATING OF BONE LOSS RELATED DISEASE” (NovMetaPharma Co., Ltd., priority 2017, published 2020).
“Also recorded” adds a separate entry of the source.

Key:
[1] = system: ovariectomized animal model; assay: Osteoporosis alleviation effect in ovariectomized animal model, micro CT of femur; type: in vivo, SD female mice
Experimental: To determine the effect of alleviating osteoporosis in an ovariectomized animal model according to administration of CHP, a zinc salt, or a mixture thereof, 20-week-old SD female mice (SLC/Central Experimental Animal Co. Ltd., Seoul, Korea) were purchased and raised under certain conditions (temperature: 22±2° C., relative humidity: 55±10%, light/dark cycle: 12 hours). 7 mice/group were allowed to freely drink water and eat food in a cage, subjected to an adaptation period of 1 week before the experiment, and used in the experiment.
After 6 weeks of the administration of CHP, a zinc salt, or a mixture thereof, the effect of alleviating osteoporosis in an ovariectomized animal model was analyzed using Micro CT. The bone mineral density of ovariectomized animals was measured by bone CT scanning of the 3 mm range at the front side of a 2 mm femoral growth plate using micro-CT (QuantumFX, Perkin Elmer, Massachusetts, USA). In addition, a bone volume fraction (BV/TV, %) was measured. The measurement results of the bone mineral density of the femur are illustrated in FIG. 1, and the bone volume fraction is illustrated in FIG. 2.

[2] = system: MC3T3-E1 cells; assay: Osteogenic differentiation of MC3T3-E1 osteoblasts, alkaline phosphatase (ALP) activity; type: cell-based
Experimental: MC3T3-E1 cells were incubated in MEMα, an ascorbic acid-free medium containing 10% FBS and 1% penicillin/streptomycin, in a 5% CO2 incubator at 37° C. To induce osteogenic differentiation, 10 mM β-glycerophosphate and […] of ascorbic acid was further added to the basal medium composition.
500 μl of 1×10^5 MC3T3-E1 cells were seeded into a 24-well plate and cultured for 24 hours until they reached 100% confluency. […] At this time, in the undifferentiated group, which is a negative control for differentiation, a basal medium was used instead of the differentiation medium. In the positive control treated with hPTH1-34, the medium was replaced with a differentiation medium 6 hours after the treatment. While the medium was replaced every 48 hours, each concentration of CHP and hPTH1-34 was treated for a total of 14 days.
On day 14 of differentiation, the medium was removed, followed by washing once with PBS and fixing in 4% paraformaldehyde (PFA) at room temperature for 5 minutes. 500 μl of a 1-STEP™ NBCT/BCIP solution was added to allow a reaction to occur at room temperature for 1 hour. The reaction product was washed with distilled water, and then dried at room temperature, and the degree of coloring of the cells was observed using a microscope. Subsequently, DMSO was added to each well, followed by shaking, and then absorbance at 525 nm was measured.

O=C1N[C@@H](Cc2cnc[nH]2)C(=O)N2CCC[C@@H]12 [CHP, cyclo-hispro]
bone mineral density of a femur ([1]; CHP alone administered to ovariectomized animal model, dose not stated (FIG. 1)): significantly increased
bone volume fraction of a femur ([1]; CHP alone administered to ovariectomized animal model, dose not stated (FIG. 2)): significantly increased
bone volume fraction (BV/TV) ([1]; group administered 1 mg/L of CHP in drinking water, 6 weeks, micro-CT): restored to a level similar to that of the positive control (risedronate)
bone mineral density of the femur ([1]; group administered 1 mg/L of CHP in drinking water, 6 weeks, micro-CT, compared to the ovariectomized group): significant increase
effect on bone mineral density and bone volume fraction versus zinc salt-administered group and combined (zinc salt + CHP) administration group ([1]; ovariectomized animal model, CHP alone): significantly stronger
osteogenic differentiation, degree of coloring (ALP staining, FIG. 3) ([2]; MC3T3-E1, 0.5, 1 or 2 mM CHP, day 14 of differentiation, compared to negative control): remarkably increased degree of coloring compared to the negative control; also recorded: as the concentration of CHP treated was increased, osteogenic differentiation and bone modeling were promoted
ALP activity (absorbance at 525 nm, FIG. 4) ([2]; MC3T3-E1, CHP 2 mM, day 14, compared to positive control hPTH1-34 10 nM): level similar to that of the positive control; also recorded: same or similar to that of a positive control
